Measured values reported in US12673043B2, “Use of inhibitors of the activator protein 1 (AP-1) for preventing adhesions” (The Board of Trustees of the Leland Stanford Junior …, priority 2020, dated 2026).

What was measured:
[1] = system: phospho-JUN; assay: In vitro T-5224 treatment of freshly isolated mouse adhesion fibroblasts, phospho-flow cytometry; assay type: cell-based; conditions: T-5224 10 μM, 24 hours, versus vehicle control (FIG. 22a)
Excerpt: (§1) Recruitment of Human Specimens. Human abdominal adhesion and control specimens were obtained at the Stanford Hospital under Stanford University's IRB approval. Clinical inclusion criteria were as follows: For adhesion specimens—patients must have had at least one prior abdominal surgery, for control specimens—patients must have had no history of prior abdominal surgery. For all patients, surgery must be elective, and there must be no evidence of active inflammation/infection at time of operation. Written, informed consent was obtained from the patient in the pre-op holding area prior to surgery. Tissue was collected in the operating room, placed directly into sterile saline, and kept on ice for transport. Sample preparation and FACS isolation. Adhesion or control tissue from mouse or human specimens was minced on ice. The tissue was then digested for 60 minutes in a 37° C. water bath agitator in 2 mg/mL collagenase (collagenase type IV, ThermoFisher) digest buffer in Medium 199 (HyClone, GE Healthcare) consisting of 5% fetal bovine serum (Gibco FBS, ThermoFisher), DNase I (Worthington), Poloxamer 188 (Cat. P5556-100ML, Sigma), HEPES, and CaCl2. […] Cells were counted and re-suspended in FACS buffer. […]

[2] = system: phospho-STAT5; assay: as above; assay type: cell-based; conditions: T-5224 10 μM, 24 hours, versus vehicle control (FIG. 22a)
Excerpt: as §1

[3] = system: abdominal adhesion formation; assay: Mouse model for abdominal adhesions, gross and histologic scoring of adhesion tissue; assay type: in vivo; conditions: local application at surgery, JUN and wild-type mice
Procedure: (§2) Mouse Model for Adhesions. A similar model for abdominal adhesion formation has been described previously by our laboratory. In brief, mice were anesthetized with inhaled isoflurane (Henry Schein Animal Health,) at a concentration of 1-2% in oxygen at 3 L/min. Ophthalmic ointment (Puralube petrolatum, Dechra Veterinary Products) was applied to the cornea to prevent desiccation. Buprenorphine (Buprenex, Reckitt Benckiser Pharmaceuticals Inc.) was administered subcutaneously prior to the surgery at a dose of 0.1 mg/kg. The mice were placed in the supine position on a clean operating surface. A heating pad was used beneath the surgical field to keep the animals warm throughout the procedure. The abdomens were shaved, and the skin of the abdomen was sterilized with three applications of betadine followed by 70% ethanol. During the procedure, the respiratory rate of the animals was monitored, and the isoflurane was titrated accordingly. A vertical midline skin incision was made in the abdomen with sharp scissors. The underlying abdominal wall was then opened vertically. The cecum was located and exteriorized. The cecal wall was abraded gently with 150-grit sandpaper. […] The animals were monitored during recovery from anesthesia. […]

[4] = system: PDGFRA; assay: Immunofluorescent staining of adhesion tissue after in vivo JUN inhibition; set-up: species or system mouse; conditions: IF staining of adhesion tissue, JUN mice induced with doxycycline (FIG. 6e)
Procedure: as §2

[5] = system: phospho-JUN; assay: as above; set-up: species or system mouse; conditions: IF staining of adhesion tissue, JUN mice induced with doxycycline, versus vehicle control (FIG. 6e-f)
Procedure: as §2

[6] = system: phospho-JUN; assay: In vivo JUN suppression in mouse adhesion model, phospho-flow cytometry of adhesion fibroblasts; conditions: applied intra-abdominally (10 uM in DMSO, locally at time of adhesion surgery), wild-type and JUN mice, 24 hours, versus vehicle control (FIG. 5d, 22b)
Procedure: (§3) Mouse Model for Adhesions. A similar model for abdominal adhesion formation has been described previously by our laboratory. In brief, mice were anesthetized with inhaled isoflurane (Henry Schein Animal Health,) at a concentration of 1-2% in oxygen at 3 L/min. Ophthalmic ointment (Puralube petrolatum, Dechra Veterinary Products) was applied to the cornea to prevent desiccation. Buprenorphine (Buprenex, Reckitt Benckiser Pharmaceuticals Inc.) was administered subcutaneously prior to the surgery at a dose of 0.1 mg/kg. The mice were placed in the supine position on a clean operating surface. A heating pad was used beneath the surgical field to keep the animals warm throughout the procedure. The abdomens were shaved, and the skin of the abdomen was sterilized with three applications of betadine followed by 70% ethanol. During the procedure, the respiratory rate of the animals was monitored, and the isoflurane was titrated accordingly. A vertical midline skin incision was made in the abdomen with sharp scissors. The underlying abdominal wall was then opened vertically. The cecum was located and exteriorized. The cecal wall was abraded gently with 150-grit sandpaper. The parietal peritoneum along the abdominal wall was similarly abraded with sandpaper and three, single, interrupted, 4-0, silk sutures were placed into the right abdominal sidewall, which served as a nidus for adhesion formation. The cecum was then placed anatomically adjacent to the right abdominal wall. The abdomen was briefly irrigated with warmed, sterile, normal saline. The irrigant was removed by blotting with a gauze sponge. The abdominal wall incision was closed with running 6-0 Monocryl suture, and the skin incision was closed with 6-0 nylon, horizontal mattress sutures. The animals were monitored during recovery from anesthesia. Additional buprenorphine was given every 6-12 hours as needed for pain. For sham surgery, animals were treated in an identical manner; however, incisions were closed without manipulation of abdominal organs.
(§4) In Vivo JUN Induction and Suppression. Doxycycline (2 mg/mL) or T-5224 (Cayman Chem, 10 uM) resuspended in DMSO were applied locally to adhesion sites at the time of adhesion surgery for JUN induction (in JUN mice) or suppression (in JUN and WT mice), respectively. Vehicle only was used for control.
(§5) Recruitment of Human Specimens. Human abdominal adhesion and control specimens were obtained at the Stanford Hospital under Stanford University's IRB approval. Clinical inclusion criteria were as follows: For adhesion specimens—patients must have had at least one prior abdominal surgery, for control specimens—patients must have had no history of prior abdominal surgery. […] Cells were counted and re-suspended in FACS buffer. […]

[7] = system: phospho-STAT5; assay: as above; conditions: applied intra-abdominally (10 uM in DMSO, locally at time of adhesion surgery), wild-type and JUN mice, 24 hours, versus vehicle control (FIG. 5d, 22b)
Procedure: as §3, §4, §5

For O=C(O)CCc1cc(C(=O)c2ccc(OC3CCCC3)cc2O)ccc1OCc1ccc2c(=O)[nH]oc2c1 [T-5224, 3-[5-(4-Cyclopentyloxy-2-hydroxybenzoyl)-2-[(3-oxo-1,2-benzoxazol-6-yl)methoxy]phenyl]propanoic acid], the phospho-JUN expression [1] was “significantly reduced”, the phospho-STAT5 expression [2] was “significantly reduced” and the “adhesions, histologic assessment” value ([3]; H&E and trichrome, versus vehicle control (FIG. 6a-d)) was “significantly thinner and less fibrotic”. For the same compound, the “adhesion formation, gross assessment” value ([3]; POD3, versus vehicle control (FIG. 5e-f)) was “dramatic decrease”, the “PDGFRA expression in adhesion tissue” value [4] was “Co-suppression” and the “JUN expression at the tissue level (p-JUN+ cells)” value [5] was “decreased”. For the same compound, the phospho-JUN expression [6] was “significantly decreased”, the phospho-JUN expression ([6]; listed as JUN inhibitor) was “significant decrease” and the phospho-STAT5 expression [7] was “significantly decreased”. For the same compound, the phospho-STAT5 expression ([7]; listed as JUN inhibitor) was “significant decrease”.
